The text below walks through data of patent publication EP4567040A1, “CRYSTAL FORM OF FUSED TRICYCLIC DERIVATIVE AND PREPARATION METHOD” (Jiangsu Hengrui Pharmaceuticals Co., Ltd., priority 2022, dated 2024).

The nature of data set [1]: Hygroscopicity study of free-state crystal forms (DVS). It is filed as physicochemical. The following applies: for 0.0% RH-80.0% RH (hygroscopicity, mass change): DVS, 25 °C; for Crystal form: crystal form after DVS test. The protocol:
Testing was performed using Surface Measurement Systems advantage 2, at 25 °C, with the humidity changing from 50% -95%-0%-95%-50%RH, in steps of 10%. The criterion was that each gradient mass change dM/dT is less than 0.002%, TMAX 360 min, two cycles.
Surface Measurement Systems intrinsic DVS was adopted. At 25 °C, the crystal forms were tested in a humidity range of 0%-95%, with increments of 10%. The criterion was that each gradient mass change dM/dT is less than 0.002%, TMAX 360 min, two cycles.

The nature of data set [2]: Influencing factor stability study of crystal forms. It counts as physicochemical. The following applies: 30-day influencing factor experiments; for chemical stability: high temperature and high humidity conditions. The protocol: Example 50. Influencing Factor Stability Study of Crystal Forms Free-state samples were spread out, left to stand in open flasks, and subjected to 30-day stability tests under light exposure (4500 Lux), high temperature (40 °C and 60 °C), and high humidity (RH 75% and RH 92.5%) conditions.

Data set [3] can be described thus: Long-term/accelerated stability of crystal forms. The conditions noted are these: for Purity%: sealed in aluminum foil bag. It counts as physicochemical. The protocol: Free-state samples were sealed in aluminum foil bags and left to stand under 25 °C/60% RH and 40 °C/75% RH conditions to test their stability.
Data set [4] relates to DPX2 (HepG2 cells were stably transfected with the human PXR gene and the fluorescent reporter gene) cells. The data set can be described thus: Cell viability in the PXR induction assay (CellTiter-Fluor). It is filed as cell-based. The protocol:
• 1. The potential of the test compounds to induce the activity of drug metabolism enzymes through in vitro activation of PXR was evaluated. […] […] Experimental procedures • 3.1. Preparation for plating • 1) 50 mL of FBS was added to 450 mL of cell culture medium. • 2) DPX2 cells were cultured in a T-75 culture flask in a 37 °C, 5% CO2 incubator with 95% relative humidity. When covering 80-90% of the bottom of the culture flask, the cells were digested. • 3) The top layer of cells cultured in the T-75 culture flask was washed with 8 mL of PBS, and the PBS was pipetted off. The cells were digested with 3 mL of pancreatin at 37 °C for about 5 min or until they were floating in the pancreatin. 10 mL (excessive) of a serum-containing culture medium was added to neutralize the pancreatin. • 4) The cell suspension was transferred to a conical-bottomed centrifuge tube and centrifuged at 120 g for 10 min. The cells were suspended in the plating culture medium, and the concentration was adjusted to 4 × 10^5 cells/mL. The diluted cells were added to a 96-well cell culture plate at 100 µL/well. The culture plate was placed in an incubator and incubated at 37 °C for 24 h before the PXR activation experiment. • 3.2. […] […] The final concentration of DMSO was 0.1%. 1 µL of DMSO was added to a well containing 1 mL of pre-incubated culture medium as a solvent control. • 2) The cell culture plate was taken out of the incubator, and the culture medium was discarded. The test compounds and the positive compound were added to appropriate wells at 100 µL/well, and each group was tested in duplicate. The cell plate was placed in an incubator and incubated for 24 h. • 3.3. Quantification of PXR activation • 1) After […] of compound treatment, PXR activation was quantified for the culture. • 2) The CellTiter-Fluor™ cell viability assay kit and the One-Glo Luciferase reagent were equilibrated to room temperature. The GF-AFC (10 µL) substrate was added to Assay Buffer (10 mL) to form a 2× reagent, and the reagent was then diluted to 1× with 10 mL of PBS; the ONE-Glo substrate was added to the ONE-Glo Luciferase Assay buffer. • 3) The cell culture plate was taken out of the incubator, and the culture medium in each well was discarded. The plate was washed twice with PBS. The 1× CellTiter-Fluor™ reagent was added to a sterilized reagent reservoir, and 50 µL was transferred to each well using a multi-channel pipette. The plate was incubated at 37 °C for 30 min. • 4) The 96-well cell plate was taken out of the incubator, and the fluorescence in each well was measured using a microplate reader put in the fluorescence mode at an excitation wavelength of 400 nm and an emission wavelength of 505 nm. • 5) The ONE-Glo reagent was poured into a reagent reservoir, and then 50 µL was transferred to each well using a multi-channel pipette. The reagent was gently and well mixed, and the mixture was incubated and well mixed at room temperature for 5 min. After the incubation, the luminescence in each well was measured using a luminometer.
The calculation formula for cell viability: Percent cell viability (%) = I(sample)/(I(vehicle) × 100 [formula]
I(sample) represents the fluorescence intensity of the sample, and I(vehicle) represents the fluorescence intensity of 0.1% DMSO to cells.

The structures appear in SMILES notation.

For `C[C@H]1COc2c(-c3nc(N[C@@H]4CCOC[C@H]4O)ncc3Cl)cc(F)c3nc(C(C)(C)O)n1c23` [Crystal form H, (3S,4R)-4-((5-chloro-4-((S)-8-fluoro-2-(2-hydroxypropan-2-yl)-3-methyl-3,4-dihydro-5-oxa-1,2a-diazaacenaphthylen-6-yl)pyrimidin-2-yl)amino)tetrahydro-2H-pyran-3-ol], the “0.0% RH-80.0% RH (hygroscopicity, mass change)” value in data set [1] is given as 0.28%. Also, the Crystal form entry in data set [1] is given as “No change”; in data set [3] (25 °C/60% RH, after standing up to 3 months), “No change”; in data set [3] (40 °C/75% RH, after standing up to 3 months), “No change”. In addition, the physical stability entry in data set [2] is on record as “good physical stability”. The chemical stability result in data set [2] is listed as “good chemical stability”. The Purity% is reported as 99.95% in data set [3] (25 °C/60% RH, 1 month); 99.95% in data set [3] (25 °C/60% RH, 2 months); 99.95% in data set [3] (25 °C/60% RH, 3 months); 99.95% in data set [3] (25 °C/60% RH, 14 days); 99.95% in data set [3] (25 °C/60% RH, Initial); 99.95% in data set [3] (40 °C/75% RH, 1 month). Further, the Purity% in data set [3] (40 °C/75% RH, 2 months) was 99.95%; in data set [3] (40 °C/75% RH, 3 months), 99.95%; in data set [3] (40 °C/75% RH, 14 days) it was 99.95%; in data set [3] (40 °C/75% RH, Initial), 99.95%. In addition, in data set [3] (long-term accelerated conditions for 3 months), the “physical stability and chemical stability” value was “good physical stability and chemical stability”.

For `CO[C@H]1/C=C/O[C@@]2(C)Oc3c(C)c(O)c4c(O)c(c(/C=N/N5CCN(C)CC5)c(O)c4c3C2=O)NC(=O)/C(C)=C\C=C\[C@H](C)[C@H](O)[C@@H](C)[C@@H](O)[C@@H](C)[C@H](OC(C)=O)[C@@H]1C` [Rifampicin, reference compound], the “Cell viability (%)” value was determined as 103.39% in data set [4] (compound concentration 0.0195 µM) and 93.07% in data set [4] (compound concentration 20.0 µM).

On to `C[C@H]1COc2c(-c3nc(N[C@@H]4CCOC[C@H]4O)ncc3Cl)cc(F)c3nc(C(C)(C)O)n1c23` [Crystal form G, (3S,4R)-4-((5-chloro-4-((S)-8-fluoro-2-(2-hydroxypropan-2-yl)-3-methyl-3,4-dihydro-5-oxa-1,2a-diazaacenaphthylen-6-yl)pyrimidin-2-yl)amino)tetrahydro-2H-pyran-3-ol], for which the “0.0% RH-80.0% RH (hygroscopicity, mass change)” value in data set [1] was determined as 2.46%. Moreover, the Crystal form result is listed as “No change” in data set [1]; “No change” in data set [3] (25 °C/60% RH, after standing up to 6 months); “No change” in data set [3] (40 °C/75% RH, after standing up to 6 months). In data set [2], the physical stability result is reported as “good physical stability”. The chemical stability result in data set [2] is given as “good chemical stability”. In addition, the Purity% was 99.9% in data set [3] (25 °C/60% RH, 1 month); 99.9% in data set [3] (25 °C/60% RH, 2 months); 99.9% in data set [3] (25 °C/60% RH, 3 months); 99.9% in data set [3] (25 °C/60% RH, 6 months); 99.9% in data set [3] (25 °C/60% RH, 14 days); 99.9% in data set [3] (25 °C/60% RH, Initial). The Purity% in data set [3] (40 °C/75% RH, 1 month) came to 99.9%; in data set [3] (40 °C/75% RH, 2 months), 99.9%; in data set [3] (40 °C/75% RH, 3 months), 99.9%; in data set [3] (40 °C/75% RH, 6 months), 99.9%; in data set [3] (40 °C/75% RH, 14 days), 99.9%; in data set [3] (40 °C/75% RH, Initial), 99.9%. In addition, in data set [3] (long-term accelerated conditions for 6 months), the “physical stability and chemical stability” value is “good physical stability and chemical stability”.
